Reference: US20230087342A1, “AZEPANE DERIVATIVE” (Nippon Chemiphar Co., Ltd., priority 2019, published 2023)

What follows are compounds tested against T1, human κ opioid receptors (Homo sapiens, UniProt P41145) (assay: Opioid receptor function test (Lance Ultra cAMP kit, agonist activity)). Conditions: CHO cells expressing human κ opioid receptors, 10 μM forskolin, 30 minutes.
T1 construct: host or cells: CHO cells
T1 sequence (P41145 whole entry): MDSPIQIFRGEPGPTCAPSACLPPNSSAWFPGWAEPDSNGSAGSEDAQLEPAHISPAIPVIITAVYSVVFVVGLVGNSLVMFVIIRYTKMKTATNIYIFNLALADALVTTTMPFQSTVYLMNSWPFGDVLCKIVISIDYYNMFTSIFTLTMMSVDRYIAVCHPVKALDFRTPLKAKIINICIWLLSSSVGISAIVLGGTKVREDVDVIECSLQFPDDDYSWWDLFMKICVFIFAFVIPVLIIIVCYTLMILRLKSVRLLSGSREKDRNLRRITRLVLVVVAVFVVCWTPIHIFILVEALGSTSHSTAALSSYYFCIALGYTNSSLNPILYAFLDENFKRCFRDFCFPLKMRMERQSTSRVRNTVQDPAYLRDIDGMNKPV
Type: cell-based
Procedure: Opioid Receptor Function Test
The function activity of the compound of the present invention on κ opioid receptors was examined.
Method: Using a Lance Ultra cAMP kit (Perkin Elmer), the examination was performed according to a predetermined method. In evaluation of agonist activity, CHO cells expressing human κ opioid receptors (Catalog No. CT6606, accession No. NM_000912) and a test compound were reacted in an assay buffer (1×HSS, 5 mM HEPES, pH 7.4, 0.5 mM IBMX (isobutylmethyixanthine), 0.1% SA) in the presence of 10 μM forskolin for 30 minutes. Subsequently, a cAMP detection reagent in the kit was added. One hour later, time-resolved fluorescence measurement was performed using an EnVision plate reader (Perkin Elmer). The evaluation of the test compound was performed in a concentration range of 10^−14 to 10^−7 M for the κ opioid receptor function test.
`Cc1cc2c(cc1O)[C@@]13CCN(C(=O)Cn4cc(C(F)(F)F)cn4)CC[C@@]1(O)[C@@H](C2)N(CC1CC1)CC3` [Example 329, 1-((5aS,6R,11bR)-14-(cyclopropylmethyl)-5a,10-dihydroxy-9-methyl-1,2,5,5a,6,7-hexahydro-6,11b-(epiminoethano)naphtho[1,2-d]azepin-3(4H)-yl)-2-(4-(trifluoromethyl)-1H-pyrazol-1-yl)ethan-1-one] was tested, and the EC50 was 0.084 nM.
Compound `C[Si]1(C)CCN(CC(=O)N2CC[C@]34CCN(CC5CC5)[C@H](Cc5ccc(O)cc53)[C@]4(O)CC2)CC1` [Example 132, 1-((5aS,6R,11bR)-14-(cyclopropylmethyl)-5a,10-dihydroxy-1,2,5,5a,6,7-hexahydro-6,11b-(epiminoethano)naphtho[1,2-d]azepin-3(4H)-yl)-2-(4,4-dimethyl-1,4-azasilinan-1-yl)ethan-1-one] has an EC50 of 0.16 nM.
Work on `Oc1ccc2c(c1)[C@@]13CCN(CCc4cc5ccccn5n4)CC[C@@]1(O)[C@@H](C2)N(CC1CC1)CC3` [Example 118, (5aS,6R,11bS)-14-(cyclopropylmethyl)-3-(2-(pyrazolo[1,5-a]pyridin-2-yl)ethyl)-2,3,4,5,6,7-hexahydro-6,11b-(epiminoethano)naphtho[1,2-d]azepine-5a,10(1H)-diol] yielded an EC50 of 0.016 nM.
Work on `Cc1cc2c(cc1O)[C@@]13CCN(C(=O)CN4CC[C@@H](C)C4)CC[C@@]1(O)[C@@H](C2)N(CC1CC1)CC3` [Example 336, 1-((5aS,6R,11bR)-14-(cyclopropylmethyl)-5a,10-dihydroxy-9-methyl-1,2,5,5a,6,7-hexahydro-6,11b-(epiminoethano)naphtho[1,2-d]azepin-3(4H)-yl)-2-((R)-3-methylpyrrolidin-1-yl)ethan-1-one] yielded an EC50 of 0.18 nM.
Compound `Cc1cnn(CC(=O)N2CC[C@]34CCN(CC5CC5)[C@H](Cc5cc(C)c(O)cc53)[C@]4(O)CC2)c1` [Example 328, 1-((5aS,6R,11bR)-14-(cyclopropylmethyl)-5a,10-dihydroxy-9-methyl-1,2,5,5a,6,7-hexahydro-6,11b-(epiminoethano)naphtho[1,2-d]azepin-3(4H)-yl)-2-(4-methyl-1H-pyrazol-1-yl)ethan-1-one] has an EC50 of 0.33 nM.
`Cc1cc(CCN2CC[C@]34CCN(CC5CC5)[C@H](Cc5ccc(O)cc53)[C@]4(O)CC2)no1` [Example 188, (5aS,6R,11bS)-14-(cyclopropylmethyl)-3-(2-(5-methylisoxazol-3-yl)ethyl)-2,3,4,5,6,7-hexahydro-6,11b-(epiminoethano)naphtho[1,2-d]azepine-5a,10(1H)-diol] showed an EC50 of 0.69 nM.
`Cc1cc2c(cc1O)[C@@]13CCN(C(=O)Cc4cc(C(F)(F)F)ccn4)CC[C@@]1(O)[C@@H](C2)N(CC1CC1)CC3` [Example 355, 1-((5aS,6R,11bR)-14-(cyclopropylmethyl)-5a,10-dihydroxy-9-methyl-1,2,5,5a,6,7-hexahydro-6,11b-(epiminoethano)naphtho[1,2-d]azepin-3(4H)-yl)-2-(4-(trifluoromethyl)pyridin-2-yl)ethan-1-one] showed an EC50 of 0.11 nM.
Compound `O=C(Cn1cc(C2CC2)cn1)N1CC[C@]23CCN(CC4CC4)[C@H](Cc4ccc(O)cc42)[C@]3(O)CC1` [Example 160, 2-(4-cyclopropyl-1H-pyrazol-1-yl)-1-((5aS,6R,11bR)-14-(cyclopropylmethyl)-5a,10-dihydroxy-1,2,5,5a,6,7-hexahydro-6,11b-(epiminoethano)naphtho[1,2-d]azepin-3(4H)-yl)ethan-1-one] has an EC50 of 0.045 nM.
`Oc1ccc2c(c1)[C@@]13CCN(CCc4ccsn4)CC[C@@]1(O)[C@@H](C2)N(CC1CC1)CC3` [Example 209, (5aS,6R,11bS)-14-(cyclopropylmethyl)-3-(2-(isothiazol-3-yl)ethyl)-2,3,4,5,6,7-hexahydro-6,11b-(epiminoethano)naphtho[1,2-d]azepine-5a,10(1H)-diol] showed an EC50 of 0.05 nM.
